Counter-ions that a name gives are not always drawn. Each block holds one compound with its values, some of them ahead of it.
Experiments:
TYSABRI® = assay: Viscosity of aqueous solutions of TYSABRI® with viscosity-lowering agents; format: physicochemical; conditions: 25° C.
Method: All viscosities of well-mixed aqueous mAb solutions were measured using either a mVROC microfluidic viscometer (RheoSense) or a DV2T cone and plate viscometer (Brookfield; “C & P”) after a 5 minute equilibration at 25° C. […] The mVROC viscometer was equipped with an “A” or “B” chip, each manufactured with a 50 micron channel. Typically, 0.10 mL of protein solution was back-loaded into a gastight microlab instrument syringe (Hamilton; 100 μL), affixed to the chip, and measured at multiple flow rates, approximately 20%, 40%, and 60% of the maximum pressure for each chip. […] An average absolute viscosity and standard deviation was then calculated from at least these three measurements. The C & P viscometer was equipped with a CPE40 or CPE52 spindle (cone angle of 0.8° and 3.0°, respectively) and 0.50 mL samples were measured at multiple shear rates between 2 and 400 s^−1. Specifically, samples were measured for 30 seconds each at 22.58, 24.38, 26.25, 28.13, 30, 31.88, 45, 67.5, 90, 112.5, 135, 157.5, 180, 202.5, 247, 270, 292.5, 315, 337.5, 360, 382, 400 s^−1, starting at a shear rate that gave at least 10% torque, and continuing until instrument torque reached 100%. An extrapolated zero-shear viscosity was then determined from a plot of dynamic viscosity versus shear rate for the samples measured on a DV2T cone and plate viscometer. The extrapolated zero-shear viscosities reported are the average and standard deviation of at least three measurements.
(§2) Viscosities were measured using a RheoSense mVROC microfluidic viscometer equipped with an “A” or “B” chip.
(§3) Subsequently, the aqueous drug product was purified, buffer exchanged, concentrated, dried, reconstituted, and analyzed as described in the same manner. Viscosities reported were measured on a RheoSense mVROC microfluidic viscometer.

VECTIBIX® = assay: Viscosity of aqueous solutions of VECTIBIX® with viscosity-lowering agents; format: physicochemical; conditions: 0.25M agent, 25° C., pH 7.0
Excerpt: (§1) (unless otherwise indicated).

biosimilar ERBITUX® = assay: Viscosity of aqueous solutions of biosimilar ERBITUX® with viscosity-lowering agents; conditions: 25° C.; for Fold Reduction: vs phosphate buffer
Method: All viscosities of well-mixed aqueous mAb solutions were measured using either a mVROC microfluidic viscometer (RheoSense) or a DV2T cone and plate viscometer (Brookfield; “C & P”) after a 5 minute equilibration at 25° C. (unless otherwise indicated). The mVROC viscometer was equipped with an “A” or “B” chip, each manufactured with a 50 micron channel. Typically, 0.10 mL of protein solution was back-loaded into a gastight microlab instrument syringe (Hamilton; 100 μL), affixed to the chip, and measured at multiple flow rates, approximately 20%, 40%, and 60% of the maximum pressure for each chip. […] An average absolute viscosity and standard deviation was then calculated from at least these three measurements. The C & P viscometer was equipped with a CPE40 or CPE52 spindle (cone angle of 0.8° and 3.0°, respectively) and 0.50 mL samples were measured at multiple shear rates between 2 and 400 s^−1. […] An extrapolated zero-shear viscosity was then determined from a plot of dynamic viscosity versus shear rate for the samples measured on a DV2T cone and plate viscometer. The extrapolated zero-shear viscosities reported are the average and standard deviation of at least three measurements.
First, Polysorbate 80 was removed using DETERGENT-OUT® TWEEN® Medi Columns (G-Biosciences). […] The collected protein solution was freeze-dried. The dried protein cakes, containing protein and buffer salts or agent, were reconstituted to a final volume of 0.15-1.3 mL. […] Reported protein concentrations represent the range of all protein samples included in each Table or Figure. Specifically, reported values are the median plus or minus half the range. Extrapolated zero-shear using an experimentally determined extinction coefficient of 1.4 L/g·cm and viscosities reported were measured on a DV2T cone and plate viscometer.
The final concentration of CSAL upon reconstitution in an aqueous CSAL solution ranged from 0.25 M to 0.50 M.
Specifically, 20 mM solutions of the viscosity-lowering agents of interest were used for buffer exchange, and the lyophilized cakes were reconstituted to 0.25 M of each viscosity-lowering agent. […] The sample was first aliquoted. […] The dried protein cakes, containing protein and viscosity-lowering agent (and a negligible amount of buffer salts) were reconstituted to a final volume of approximately 0.10 mL and viscosity-lowering agent concentration as previously described.
First, Polysorbate was removed from the commercially obtained mAb solutions.
Specifically, 20 mM solutions of the salts of interest were used for buffer exchange, and the lyophilized cakes were reconstituted to contain 0.25 M of each agent. Viscosities were measured using either a RheoSense mVROC microfluidic viscometer equipped with an “A” or “B” chip or a DV2T cone and plate viscometer.
as §3

HERCEPTIN® = assay: Viscosity of aqueous solutions of HERCEPTIN® with viscosity-lowering agents; format: physicochemical; conditions: 25° C.
Method: All viscosities of well-mixed aqueous mAb solutions were measured using either a mVROC microfluidic viscometer (RheoSense) or a DV2T cone and plate viscometer (Brookfield; “C & P”) after a 5 minute equilibration at 25° C. (unless otherwise indicated). The mVROC viscometer was equipped with an “A” or “B” chip, each manufactured with a 50 micron channel. Typically, 0.10 mL of protein solution was back-loaded into a gastight microlab instrument syringe (Hamilton; 100 μL), affixed to the chip, and measured at multiple flow rates, approximately 20%, 40%, and 60% of the maximum pressure for each chip. […] An average absolute viscosity and standard deviation was then calculated from at least these three measurements. The C & P viscometer was equipped with a CPE40 or CPE52 spindle (cone angle of 0.8° and 3.0°, respectively) and 0.50 mL samples were measured at multiple shear rates between 2 and 400 s^−1. Specifically, samples were measured for 30 seconds each at 22.58, 24.38, 26.25, 28.13, 30, 31.88, 45, 67.5, 90, 112.5, 135, 157.5, 180, 202.5, 247, 270, 292.5, 315, 337.5, 360, 382, 400 s^−1, starting at a shear rate that gave at least 10% torque, and continuing until instrument torque reached 100%. An extrapolated zero-shear viscosity was then determined from a plot of dynamic viscosity versus shear rate for the samples measured on a DV2T cone and plate viscometer. The extrapolated zero-shear viscosities reported are the average and standard deviation of at least three measurements.
as §2
Viscosities reported were measured on a RheoSense mVROC microfluidic viscometer.

biosimilar AVASTIN® = assay: Viscosity of aqueous solutions of biosimilar AVASTIN® with viscosity-lowering agents; format: physicochemical
Method: as §1
The protein was formulated to contain either 0.25 M phosphate buffer or 0.25 M CSAL.
Subsequently, the appropriate amount of viscosity-lowering agent was added to result in a final viscosity-lowering agent concentration of 0.15-0.35 M upon reconstitution.
The viscosity-lowering agent(s) were added in an amount sufficient to give concentration upon reconstitution as specified below. In cases of combinations of agents, the concentration of each component is 0.15 M. The protein solutions were then freeze-dried.

biosimilar RITUXAN® = assay: Viscosity of aqueous solutions of biosimilar RITUXAN® with viscosity-lowering agents; conditions: 25° C.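 Note: absolute viscosity of aqueous antibody solutions determined by microfluidic viscometry (mVROC chip, 50 micron channel) at several flow rates after 5 min equilibration, mean of at least three readings.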
Method: All viscosities of well-mixed aqueous mAb solutions were measured using either a mVROC microfluidic viscometer (RheoSense) or a DV2T cone and plate viscometer (Brookfield; “C & P”) after a 5 minute equilibration at 25° C. […] The mVROC viscometer was equipped with an “A” or “B” chip, each manufactured with a 50 micron channel. Typically, 0.10 mL of protein solution was back-loaded into a gastight microlab instrument syringe (Hamilton; 100 μL), affixed to the chip, and measured at multiple flow rates, approximately 20%, 40%, and 60% of the maximum pressure for each chip. […] An average absolute viscosity and standard deviation was then calculated from at least these three measurements. The C & P viscometer was equipped with a CPE40 or CPE52 spindle (cone angle of 0.8° and 3.0°, respectively) and 0.50 mL samples were measured at multiple shear rates between 2 and 400 s^−1. […] An extrapolated zero-shear viscosity was then determined from a plot of dynamic viscosity versus shear rate for the samples measured on a DV2T cone and plate viscometer. The extrapolated zero-shear viscosities reported are the average and standard deviation of at least three measurements.
as §2

REMICADE® [1] = assay: Viscosity of aqueous solutions of […]® with viscosity-lowering agents; format: physicochemical; conditions: for Viscosity: 25° C.
Method: as §1
An extrapolated zero-shear viscosity was determined from a plot of absolute viscosity versus shear rate.
Following reconstitution, the viscosity of each solution was measured using the microfluidic viscometer as described in previous examples. The solutions were then back-loaded into 1 mL BD insulin syringes with 27, 29, or 31 gauge fixed needles. The force required to extrude the concentrated […]® solutions was then measured using an Instron at a rate of displacement equivalent to a fluid flow rate of 3 mL/min. The expelled solution was collected from the syringe and analyzed by size-exclusion chromatography.

antigen = assay: Antigen binding, […]®-specific ELISA assay; conditions: 227 mg/mL, pH 7, 0.25M CSAA, storage at 4° C.
Method: Biophysical properties of solutions of […]® formulated with 0.25 M CSAA were assessed over 90 days. Samples of […]® formulated with 0.25 M CSAA were prepared as described in Example 1 above. […] (Table 20). Additionally, antigen binding of this processed […]® protein was measured with a […]®-specific ELISA assay and no decrease in binding was seen between days 0 and […] (Table 20).

REMICADE® [2] = assay: Monomer content of […]® solutions by size exclusion chromatography; format: physicochemical; conditions: lyophilized powder (cake containing CSAA) stored at 4° C.; reconstituted after 75 days
[3] = 222 ± 5 mg/mL mAb, pH 7.0, 0.25M agent
[4] = 200 ± 5 mg/mL mAb, pH 7.0, 25° C., [Salt] 0.25 M of anion, C & P viscometer
[5] = 166 ± 4 mg/mL REMICADE, 0.25M agent, pH 7.0
[6] = 222 ± 6 mg/mL REMICADE, 0.25M agent, pH 7.0
[7] = 202 ± 2 mg/mL RITUXAN, 0.25M agent, pH 7.0

Viscosity (biosimilar ERBITUX®; 179 mg/mL mAb, 0.10M agent): 37.4 ± 0.9 cP | Viscosity (biosimilar ERBITUX®; 199 mg/mL mAb, 0.10M agent): 54.8 ± 0.2 cP | Viscosity (biosimilar AVASTIN®; 200 mg/mL mAb, agent 0.10M, 25° C.): 27.9 ± 0.6 cP | Viscosity (biosimilar AVASTIN®; 219 mg/mL mAb, agent 0.10M, 25° C.): 58.6 ± 1.6 cP | Viscosity (biosimilar AVASTIN®; 228 mg/mL mAb, agent 0.10M, 25° C.): 71.8 ± 0.9 cP | Viscosity (biosimilar RITUXAN®; 210 mg/mL mAb, 0.10M agent): 67.1 ± 1.1 cP
Compound: CCN(CC)CCCC(C)Nc1ccnc2cc(Cl)ccc12 (centres unmarked) [Chloroquine Phosphate, reference compound]

Viscosity (biosimilar ERBITUX®; 183 mg/mL mAb, […] agent): 19.7 ± 0.2 cP | Viscosity (biosimilar AVASTIN®; 203 mg/mL mAb, agent […], 25° C.): 53.8 ± 2.4 cP | Viscosity (biosimilar RITUXAN®; 215 mg/mL mAb, […] agent): 49.5 ± 1.2 cP
Compound: CN/C(=N/CCSCc1nc[nH]c1C)NC#N [Cimetidine HCl, reference compound]

Viscosity (biosimilar ERBITUX®; 180 mg/mL mAb, […] agent): 23.0 ± 0.2 cP | Viscosity (biosimilar AVASTIN®; 168 mg/mL mAb, agent […], 25° C.): 37.9 ± 0.6 cP | Viscosity (biosimilar AVASTIN®; 237 mg/mL mAb, agent […], 25° C.): 308 ± 34 cP | Viscosity (biosimilar RITUXAN®; 204 mg/mL mAb, […] agent): 51.2 ± 0.8 cP
Compound: CN1C2CCCC1CC(NC(=O)c1nn(C)c3ccccc13)C2 (centres unmarked) [Granisetron HCl, reference compound]

Viscosity (biosimilar ERBITUX®; 176 mg/mL mAb, […] agent): 103 ± 3 cP | Viscosity (biosimilar ERBITUX®; 199 mg/mL mAb, […] agent): 178 ± 2 cP | Viscosity (biosimilar RITUXAN®; 205 mg/mL mAb, […] agent): 130 ± 2 cP
Compound: CC[C@@H](C(N)=O)N1CCCC1=O [Levetiracetam, reference compound]

Viscosity (biosimilar ERBITUX®; 178 mg/mL mAb, […] agent): 82.1 ± 3.6 cP | Viscosity (biosimilar RITUXAN®; 207 mg/mL mAb, […] agent): 114 ± 7 cP
Compound: CC1(C)S[C@@H]2[C@H](NC(=O)Cc3ccccc3)C(=O)N2[C@H]1C(=O)[O-].[Na+] [Penicillin G sodium salt, reference compound]

Viscosity (TYSABRI®; 228 mg/mL TYSABRI, […] agent): 45.1 ± 1.5 cP | Viscosity (biosimilar ERBITUX®; 230 mg/mL mAb, […] agent): 35.9 ± 0.3 cP | Viscosity (HERCEPTIN®; 222 mg/mL HERCEPTIN, […] agent): 41.8 ± 0.6 cP | Viscosity (biosimilar AVASTIN®; 188 mg/mL mAb, agent […], 25° C.): 40.8 ± 0.9 cP | Viscosity (biosimilar AVASTIN®; 222 mg/mL mAb, agent […], 25° C.): 65.8 ± 0.8 cP | Viscosity (biosimilar RITUXAN®; 195 mg/mL mAb, […] agent): 33.4 ± 1.2 cP | Viscosity (biosimilar RITUXAN®; 222 mg/mL mAb, […] agent): 46.2 ± 1.1 cP | Viscosity (REMICADE® [1]; 174 mg/mL REMICADE, […] agent): 23.4 ± 0.2 cP
Compound: CCN(CC)CCOC(=O)c1ccc(N)cc1 [Procaine HCl, reference compound]

Viscosity (HERCEPTIN®; 232 mg/mL HERCEPTIN, […] agent): 60.1 ± 0.6 cP | Viscosity (biosimilar RITUXAN®; 188 mg/mL mAb, […] agent): 40.7 ± 0.5 cP | Viscosity (biosimilar RITUXAN®; 242 mg/mL mAb, […] agent): 63.0 ± 3.5 cP
Compound: CSA-Na-Ornidazole

Viscosity (biosimilar AVASTIN®; 219 mg/mL mAb, […] agent, pH 7.0, 25° C., microfluidic): >150 cP | Viscosity (biosimilar RITUXAN®; 191 mg/mL mAb, […] agent): 80.3 ± 16.0 cP
Compound: Ethane disulfonate-diTris-2Na

% binding (ELISA) (antigen; day 0): 105 ± 14% | % binding (ELISA) (antigen; day 30): 98 ± 12% | % binding (ELISA) (antigen; day 100): 101 ± 5%
Compound: REMICADE ®: infliximab, mAb against TNF-α; here concentrated solution formulated with 0.25 M CSAA
% Monomer (SEC) (REMICADE® [2]): 98.9 ± 0.1%

The next lines start with the compound.

Compound: Cl.N=C(N)NCCC[C@H](N)C(=O)O [Arginine•HCl, arginine HCl, reference compound]
Viscosity (TYSABRI®; 230 ± 2 mg/mL TYSABRI, 0.25M agent, pH 7.0): 37.0 ± 0.1 cP | Viscosity (TYSABRI®; 237 ± 4 mg/mL TYSABRI, 0.25M agent, pH 7.0): 52.3 ± 4.5 cP | Viscosity (TYSABRI®; 276 ± 8 mg/mL TYSABRI, 0.25M agent, pH 7.0): 97.2 ± 5.7 cP | Viscosity (VECTIBIX®; 233 ± 4 mg/mL VECTIBIX): 24.7 ± 1.3 cP | Viscosity (VECTIBIX®; 252 ± 3 mg/mL VECTIBIX): 36.2 ± 1.0 cP | Viscosity (biosimilar ERBITUX®; [3]): 45.3 ± 0.5 cP | Fold Reduction (biosimilar ERBITUX®; [3]): 24.9 fold | Viscosity (HERCEPTIN®; 216 ± 0 mg/mL HERCEPTIN, 0.25M salt, pH 7.0): 44.8 ± 1.1 cP | Viscosity (HERCEPTIN®; 254 ± 3 mg/mL HERCEPTIN, 0.25M salt, pH 7.0): 116 ± 24 cP | Viscosity (HERCEPTIN®; 270 ± 6 mg/mL HERCEPTIN, 0.25M salt, pH 7.0): 179 ± 17 cP | Viscosity (biosimilar AVASTIN®; [4]): 83.2 ± 2.8 cP | Viscosity (biosimilar AVASTIN®; 200 ± 5 mg/mL mAb, pH 7.0, 25° C., [Salt] 0.3 M of anion, C & P viscometer): 71.8 ± 2.2 cP | Viscosity (biosimilar RITUXAN®; 220 mg/mL RITUXAN (footnote *), 0.45M agent, pH 7.0): 86.8 ± 1.8 | Viscosity (biosimilar RITUXAN®; 202 ± 2 mg/mL RITUXAN, 0.45M agent, pH 7.0): 46.9 ± 0.8 | Viscosity (REMICADE® [1]; [5]): 110 ± 1 cP | Viscosity (REMICADE® [1]; [6]): 486 ± 34 cP

Compound: O=C([O-])CCCC[C@@H]1SC[C@@H]2NC(=O)N[C@@H]21.[Na+] [Biotin-Na]
Viscosity (TYSABRI®; 233 mg/mL TYSABRI, […] agent): 75.8 ± 0.4 cP | Viscosity (HERCEPTIN®; 230 mg/mL HERCEPTIN, […] agent): 69.9 ± 2.3 cP | Viscosity (biosimilar AVASTIN®; 189 mg/mL mAb, agent […], 25° C.): 45.1 ± 0.9 cP

Compound: CC1(C)C2CCC1(CS(=O)(=O)O)C(=O)C2 (centres unmarked) [CSA sodium salt, Camphorsulfonic acid]
Viscosity (biosimilar ERBITUX®; [3]): 393 ± 14 cP | Fold Reduction (biosimilar ERBITUX®; [3]): 2.9 fold | Viscosity (biosimilar AVASTIN®; [4]): 55.7 ± 0.2 cP | Viscosity (biosimilar RITUXAN®; [7]): 76.1 ± 1.3

Compound: CO/N=C(\C(=O)N[C@@H]1C(=O)N2C(C(=O)O)=C(CSc3nc(=O)c(=O)[nH]n3C)CS[C@H]12)c1csc(N)n1 [Ceftriaxone sodium salt, reference compound]
Viscosity (biosimilar ERBITUX®; 190 mg/mL mAb, […] agent): 120 ± 2 cP | Viscosity (biosimilar AVASTIN®; 198 mg/mL mAb, agent […], 25° C.): 301 ± 5 cP | Viscosity (biosimilar RITUXAN®; 222 mg/mL mAb, […] agent): 198 ± 17 cP

Compound: CN1[C@@H]2C[C@@H](OC(=O)[C@H](CO)c3ccccc3)C[C@H]1[C@@H]1O[C@@H]12 [Scopolamine HBr, reference compound]
Viscosity (biosimilar ERBITUX®; 173 mg/mL mAb, […] agent): 23.4 ± 0.6 cP | Viscosity (biosimilar AVASTIN®; 210 mg/mL mAb, agent […], 25° C.): 35.3 ± 1.1 cP | Viscosity (biosimilar AVASTIN®; 223 mg/mL mAb, agent […], 25° C.): 64.0 ± 0.8 cP | Viscosity (biosimilar AVASTIN®; 238 mg/mL mAb, agent […], 25° C.): 87.8 ± 1.5 cP | Viscosity (biosimilar RITUXAN®; 197 mg/mL mAb, […] agent): 42.3 ± 1.0 cP

Compound: Colistin sulfate salt [reference compound]
Viscosity (biosimilar ERBITUX®; 203 mg/mL mAb, […] agent): 138 ± 4 cP | Viscosity (biosimilar AVASTIN®; 240 mg/mL mAb, agent […], 25° C.): 261 ± 58 cP | Viscosity (biosimilar RITUXAN®; 230 mg/mL mAb, […] agent): 228 ± 19 cP

Compound: HEPES-Tris
Viscosity (biosimilar AVASTIN®; 214 mg/mL mAb, agent […], 25° C.): 90.5 ± 1.8 cP | Viscosity (biosimilar RITUXAN®; 191 mg/mL mAb, […] agent): 50.0 ± 3.8 cP

Compound: sulfosalicylic acid di-arginine [Sulfosalicylic acid diarginine]
Viscosity (biosimilar AVASTIN®; 228 ± 5 mg/mL mAb, agent […], 25° C., pH 7.0): 81.6 ± 1.7 cP | Viscosity (biosimilar RITUXAN®; 220 mg/mL RITUXAN (footnote *), 0.25M agent, pH 7.0): 68.3 ± 0.8 | Viscosity (biosimilar RITUXAN®; [7]): 44.1 ± 0.1 | Viscosity reduction (REMICADE® [1]; 0.25M agent vs PB, Table 17): about 29 fold | Viscosity (REMICADE® [1]; [5]): 27.1 ± 0.3 cP | Viscosity (REMICADE® [1]; [6]): 55.9 ± 1.8 cP
